# Laboratory results from patent US9945845B2, “Methods of screening using amphibians” (priority 2009, dated 2018).
# “Also recorded” adds a separate entry of the source. Read-outs that look alike come from different tables or passages of the source.
# Legend:
# Xenopus embryos = conditions: for Lethality (NF) / Onset (NF): 20 μM, 1% DMSO; for Lethality: — = no stage of lethality given; for Embr. phen.: embryonic phenotype in the primary screen; for Type of edema Periocular: * = causing bulging eyes, # = bilateral, causing narrow-set eyes; for Type of edema Ventral: ‡ = edemas also detected in the gut
# Experimental: 10-μl aliquots of the chemicals were transferred from the mother plates with a liquid handling robot (Aquarius, Tecan) into 96-well tissue culture plates to generate diluted stock plates (2 mM in DMSO; 50 μl final volume). […] Once embryos reached stage 31 (37 hpf), 10-μl aliquots of the diluted chemicals were added to the wells. […] Negative control wells contained embryos in screening medium and 0.1×MMR only. Embryos were treated with the chemicals in a humidified incubator at 23° C. over a timeframe of 4 days. Embryos were manually scored for the presence of edema or other morphological phenotypes using a teaching dissecting microscope (SV6; Carl Zeiss). Two investigators performed separately the scoring daily at stages 39 (56 hpf), 41 (76 hpf), 45 (98 hpf), and 47 (120 hpf). Dead embryos were removed and 100 μl of water was added daily to each well to compensate for fluid evaporation. […] For imaging at the end of the experiments. Xenopus tadpoles were anesthetized with 0.05% tricaine (Sigma #A5040) in 0.1×MMR. Images were captured using a stereomicroscope (SteREO Lumar V12; Carl Zeiss) equipped with a digital camera (AxioCam Color; Carl Zeiss).
# Xenopus late tailbud embryos at stage 31 (37 hpf) were selected for compound treatment. […] Embryos were arrayed into 48-well dishes (five per well) and treated with test compounds at a concentration of 20 μM in the presence of 1% DMSO. […] All 48-well dishes also contained replicates of negative controls (1% DMSO). Embryos were monitored daily over a period of four days for edema formation. In addition, drug-induced lethality and other externally visible phenotypes were scored. On average, 320 compounds were screened per week.
# [1] = test system: blood vessel development and/or lymphangiogenesis in Xenopus embryos; format: in vivo, Xenopus laevis; conditions: for lymph vessel development phenotype (vegfr3 expression, in words): 20 μM from stage 31, fixed at stage 42; for Blood vessel phenotype / ALH phenotype / ALS phenotype / PLV phenotype / ISV phenotype / PCV phenotype / VVN phenotype / Lymphatic phenotype: Xenopus embryos; for ALH phenotype: anterior lymph heart; for ALS phenotype: anterior lymph sac; for PLV phenotype: posterior lymph vessels; for blood vessel development phenotype (apj expression, in words): 20 μM from stage 31, fixed at stage 35/36; for ISV phenotype: intersomitic vessels; for PCV phenotype: posterior cardinal vein; for VVN phenotype: vitelline vein network
# Experimental: All chemicals were purchased from Sigma and 10-mM stock solutions in DMSO were prepared. Chemicals were used at a final concentration of 20 μM in screening medium to treat homozygous albino Xenopus embryos, which lack natural pigmentation. Chemical treatments of embryos (n=7 per well) was initiated at stage 31 (37 hpf) and terminated at stages 35/36 (50 hpf) or 42 (80 hpf). Embryos were fixed in 4% paraformaldehyde and processed for whole mount in situ hybridization.
# Where albino embryos were used, the bleaching step was omitted. Semi-automated whole mount in situ hybridizations were performed using the Biolane HTI machine (Hölle & Hüttner AG, Germany). […] Images were captured using a stereomicroscope (SteREO Lumar V12; Carl Zeiss) equipped with a digital camera (AxioCam Color; Carl Zeiss). Composite figures were organized and labeled using Adobe Photoshop CS2 and Adobe Illustrator CS software.
# Edema formation or late-stage lethality may result from excretory system defects, (cardio)vascular and/or lymphatic vascular pathologies. […] Embryos were fixed for in situ hybridization either at stage 35/36 to analyze vasculogenesis and intersomitic vein angiogenesis defects or at stage 42 to evaluate possible defects in lymph vessel development (FIGS. 3-5).
# LEC = assay: cells; format: cell-based, human; conditions: 1 μM in 0.1% DMSO
# Experimental: Human umbilical vein endothelial cells (HUVEC) were purchased from PromoCell. […] HUVEC and LEC were cultured in endothelial basal medium EBM (Cambrex) supplemented with 20% fetal bovine serum (Invitrogen), antibiotic-antimycotics (100 U/ml penicillin, 100 μg/ml streptomycin, 250 ng/ml amphotericin; Invitrogen). 2 mM L-glutamine (Invitrogen), 10 μg/ml hydrocortisone (Fluka) and 25 μg/ml N^6,2′-O-dibutyryladenosine 3′,5′-cyclic monophosphate sodium salt (Fluka) for up to eleven passages.
# The effect of the selected chemicals on the formation of tube-like structures was performed as follows. […] After overnight incubation at 37° C. the treated cell cultures were fixed with 4% paraformaldehyde. Each chemical treatment was performed in triplicate and the experiment was repeated at least three times. Three representative images of hotspots with tube-like structures were taken per well using a digital camera (AxioCam MRm, Carl Zeiss) mounted on an inverted microscope (Axiovert 200M, Carl Zeiss). The length of the tube-like structures was measured using the IPLab software (BD Biosciences). For each experimental condition, results are represented as average total tube length (μm) per area (three image fields).
# The effects of the selected compounds on endothelial tube formation was assessed after over treatment of LEC and HUVEC cultures at a compound concentration of 1 μM in 0.1% DMSO. The length of the tube-like structures was measured using the IPLab software.
# [2] = compounds causing edema, treatment from stage 31, scored to stage 47
# [3] = compounds causing lethality, treatment from stage 31, Nieuwkoop & Faber stage
# [4] = onset of edema, treatment from stage 31, Nieuwkoop & Faber stage
# [5] = compounds causing cytotoxicity, treatment from stage 31, Nieuwkoop & Faber stage
compound,measurement,setting,value
"Cc1cc(N)c2ccccc2[n+]1CCCCCCCCCC[n+]1c(C)cc(N)c2ccccc21.[Cl-].[Cl-] [Dequalinium dichloride, 1,1′-Decamethylenebis(4-aminoquinaldinium) dichloride]",Lethality (NF),Xenopus embryos; [2],39 NF
same,Type of edema Pericordial,Xenopus embryos; embryonic stage,39 embryonic stages according to Nieuwkoop and Faber (NF)
same,Lethality,Xenopus embryos; embryonic stage,39 embryonic stages according to Nieuwkoop and Faber (NF)
same,"lymph vessel development phenotype (vegfr3 expression, in words)",[1],"poorly developed, stunted lymphatics emerging from the ALS and ALH and hypoplastic PLV"
same,Blood vessel phenotype,[1],normal
same,ALH phenotype,[1],stunted
same,ALS phenotype,[1],stunted
same,PLV phenotype,[1],hypoplastic
Clc1ccc(C(c2ccc(Cl)cc2)n2cc[n+](CC(OCc3ccc(Cl)cc3Cl)c3ccc(Cl)cc3Cl)c2)cc1 (stereo not drawn) [Calmidazolium chloride],Lethality (NF),Xenopus embryos; [3],37/38
same,"blood vessel development phenotype (apj expression, in words)",[1],"promoting ectopic, premature angiogenesis; also recorded: ectopic sprouting phenotype was even more pronounced"
same,ISV phenotype,[1],ectopic
same,PCV phenotype,[1],normal
same,VVN phenotype,[1],hyperplastic
CC(C)[C@H](CO)Nc1nc(Nc2cccc(Cl)c2)c2ncn(C(C)C)c2n1 [Purvalanol A],Lethality (NF),Xenopus embryos; [3],41/42
same,Embr. phen.,Xenopus embryos,LET
same,"blood vessel development phenotype (apj expression, in words)",[1],only interfered with the assembly of the VVN
same,Lymphatic phenotype,[1],normal
same,ISV phenotype,[1],normal
same,PCV phenotype,[1],normal
same,VVN phenotype,[1],hypoplastic
"CN(C)S(=O)(=O)c1ccc2c(c1)C(=Cc1cc3c([nH]1)CCCC3)C(=O)N2 [SU 6656, 2,3-Dihydro-N,N-dimethyl-2-oxo-3-[(4,5,6,7-tetrahydro-1H-indol-2-yl)methylene]-1H-indole-5-sulfonamide]",Lethality (NF),Xenopus embryos; [2],46 NF
same,Type of edema Pericordial,Xenopus embryos; embryonic stage,41/42
same,Type of edema Proctodeal,Xenopus embryos; embryonic stage,39/40
same,Type of edema Pronephric,Xenopus embryos; embryonic stage,39/40
same,Type of edema Periocular,Xenopus embryos; embryonic stage,41/42*
same,Lethality,Xenopus embryos; embryonic stage,46 embryonic stages according to Nieuwkoop and Faber (NF)
same,Type of edema Ventral,Xenopus embryos; embryonic stage,39/40
same,Onset (NF),Xenopus embryos; [4],39/40
same,"lymph vessel development phenotype (vegfr3 expression, in words)",[1],"inhibiting preferentially lymphatic vascular development; also recorded: poorly developed, stunted lymphatics emerging from the ALS and ALH and hypoplastic PLV"
same,Blood vessel phenotype,[1],normal
same,ALH phenotype,[1],dysplastic
same,ALS phenotype,[1],stunted
same,PLV phenotype,[1],hypopiastic
CC[C@H](C)C(=O)O[C@H]1CCC=C2C=C[C@H](C)[C@H](CC[C@@H]3C[C@@H](O)CC(=O)O3)[C@H]21 [Mevastatin],Lethality (NF),Xenopus embryos; [2],45 NF
same,Embr. phen.,Xenopus embryos,EDE
same,Type of edema Pericordial,Xenopus embryos; embryonic stage,35/36
same,Lethality,Xenopus embryos; embryonic stage,45 embryonic stages according to Nieuwkoop and Faber (NF)
same,Type of edema Ventral,Xenopus embryos; embryonic stage,41/42
same,Onset (NF),Xenopus embryos; [4],35/36
same,"lymph vessel development phenotype (vegfr3 expression, in words)",[1],lymphangiogenesis was largely suppressed
same,Blood vessel phenotype,[1],normal
same,ALH phenotype,[1],impaired
same,ALS phenotype,[1],impaired
same,PLV phenotype,[1],hypoplastic
"O=C1C(SCCO)=C(SCCO)C(=O)c2ccccc21 [NSC 95397, 2,3-bis[(2-Hydroxyethyl)thio]-1,4-naphthoquinone]",Lethality (NF),Xenopus embryos; [3],40 NF
same,ISV phenotype,[1],impaired
same,PCV phenotype,[1],hypoplastic
same,VVN phenotype,[1],hypoplastic
CC[C@@H]1/C=C/C=C/C[C@H](C)[C@H](O)[C@](C)(O)C(=O)[C@H](C)[C@@H](O)[C@H](C)C(=O)[C@H](C)[C@@H](O)[C@H](C)/C=C/C(=O)O[C@H]2[C@@H](C)[C@@H](CC1)O[C@@]1(CC[C@@H](C)[C@@H](C[C@H](C)O)O1)[C@@H]2C [oligomycin A],effect on LEC tube formation (in words),LEC,preferentially blocked tube formation in LEC rather than HUVEC cultures
"COc1cc(-c2ccc(=O)[nH]n2)ccc1OC(F)F [Zardaverine, 6-(4-Difluoromethoxy-3-methoxyphenyl)-3(2H)-pyridazinone]",Lethality (NF),Xenopus embryos; [2],43 NF
same,Type of edema Pericordial,Xenopus embryos; embryonic stage,39/40
same,Type of edema Pronephric,Xenopus embryos; embryonic stage,41/42
same,Lethality,Xenopus embryos; embryonic stage,43 embryonic stages according to Nieuwkoop and Faber (NF)
same,Onset (NF),Xenopus embryos; [4],39/40
same,"blood vessel development phenotype (apj expression, in words)",[1],only interfered with the assembly of the VVN
same,ISV phenotype,[1],normal
same,PCV phenotype,[1],normal
same,VVN phenotype,[1],hypoplastic
CNc1ccc2oc(C[C@H]3O[C@@]4(CC[C@H]3C)O[C@H]([C@H](C)C(=O)c3ccc[nH]3)[C@H](C)C[C@H]4C)nc2c1C(=O)O [Calcimycin],Lethality (NF),Xenopus embryos; [5],32 NF
C[C@H]1CCC/C=C/[C@@H]2C[C@H](O)C[C@H]2[C@H](O)/C=C/C(=O)O1 [Brefeldin A],Lethality (NF),Xenopus embryos; [5],33/34
S=C(Nc1ccccc1)Nc1nccs1 [1-Phenyl-3-(2-thiazolyl)-2-thiourea],Onset (NF),Xenopus embryos; onset of pigmentation defects,33/34
"O.c1cnc2c(c1)ccc1cccnc12 [1,10-Phenenthroline monohydrate]",Type of edema Pericordial,Xenopus embryos; embryonic stage,39/40
same,Lethality,Xenopus embryos; embryonic stage,46 embryonic stages according to Nieuwkoop and Faber (NF)
same,Type of edema Ventral,Xenopus embryos; embryonic stage,41/42
Cc1ccc(Cl)c(Nc2ccccc2C(=O)[O-])c1Cl.[Na+] [Meclotenamic acid sodium],Embr. phen.,Xenopus embryos,EDE
same,ISV phenotype,[1],impaired
same,PCV phenotype,[1],hypoplastic
same,VVN phenotype,[1],hypoplastic
"OCc1ccc(-c2nn(Cc3ccccc3)c3ccccc23)o1 [YC-1, 3-(5′-Hydroxymethyl-2′-fulyl)-1-benzyl indazole]",Embr. phen.,Xenopus embryos,EDE
same,Onset (NF),Xenopus embryos; [4],45 NF
same,"blood vessel development phenotype (apj expression, in words)",[1],"dispersed, punctuated patterns of VVN endothelia"
same,Lymphatic phenotype,[1],normal
same,ISV phenotype,[1],normal
same,PCV phenotype,[1],normal
same,VVN phenotype,[1],hypoplastic
"Cl.Cl.Fc1ccc(C(OCCN2CCN(CCCc3ccccc3)CC2)c2ccc(F)cc2)cc1 [GBR-12909 dihydrochloride, 1-[2-[bis(4-Fluorophenyl)methoxy]ethyl]-4-[3-phenylpropyl]piperazine dihydrochloride]",Type of edema Pronephric,Xenopus embryos; embryonic stage,45 embryonic stages according to Nieuwkoop and Faber (NF)
same,Type of edema Periocular,Xenopus embryos; embryonic stage,45 embryonic stages according to Nieuwkoop and Faber (NF)
same,Type of edema Ventral,Xenopus embryos; embryonic stage,45 embryonic stages according to Nieuwkoop and Faber (NF)
CCCCCCCC/C=C\CCCCCCCC(=O)NCCc1ccc(O)c(O)c1 [N-Oleoyldopamine],Lethality (NF),Xenopus embryos; [3],41 NF
CCCCCCCCCCCCCC(=O)O[C@@H]1[C@@H](C)[C@@]2(O)[C@@H](C=C(CO)C[C@]3(O)C(=O)C(C)=C[C@@H]23)[C@@H]2C(C)(C)[C@]12OC(C)=O [Phorbol 12-myristate 13-acetate],Lethality (NF),Xenopus embryos; [5],32 NF
R(-)-Propylnorapomorphine hydrochloride,Onset (NF),Xenopus embryos; onset of pigmentation defects,33/34
